Assay results published in patent US12043602B2, “Fendiline derivatives” (The Board of Regents of the University of Texas System, priority 2019, dated 2024).
Where “and” joins values, the source holds several entries; their conditions need not be identical. Equal values may be shown once. Read-outs that look alike come from different tables or passages of the source.

How the values were obtained:
mGFP-K-RASG12V = mGFP-K-RASG12V (Homo sapiens (Human), UniProt P01116, G12V); assay: K-Ras mislocalization assay (confocal microscopy, Manders coefficient); format: cell-based; design: key to Emax: Manders coefficient: fraction of mCherry-CAAX co-localizing with GFP-K-Ras; settings: for IC50 / Emax / EC50: MDCK cells; for IC50: 48 h treatment, read-out: IC50 (μM), KRASG12V mislocalization; for Emax: maximal effect, Manders coefficient; for Emax / EC50: 48 h; for EC50: batch 4 compounds, title calls it IC50, read-out: EC50
Protocol: Madine Darby Canine Kidney epithelial cells (MDCK) stably co-expressing mGFP-tagged full length oncogenic mutant K-Ras (GFP—K-RASG12V) or mGFP-LactC2 (peptide probe for phosphatidylserine) and mCherry-tagged to the amino acids 179-189 of H-RasC181S, C184S (mCherry-CAAX, localizes primarily to endomembranes) were grown in DMEM-high glucose/sodium pyruvate/10% FBS. The medium was supplemented with 1× Penicillin/Streptomycin for fluorescence microscopy assays, to avoid any microbial contamination from the test compounds added. KLE and Hec50 cells were maintained in DMEM-F-12 medium supplemented with 10% FBS. Hec-1A and Hec-1B cells were grown in McCoy's 5a medium supplemented with 10% FBS. ESS-1 cells were grown in RPMI 1640 medium supplemented with 20% FBS. MPanc96 cells were grown in DMEM supplemented with 10% FBS, MiaPaCa-2 cells in DMEM supplemented with 10% FBS and 2.5% horse serum and all other cell lines were grown in RPMI 1640 supplemented with 10% FBS. All cancer cell media were supplemented with ×Penicillin/Streptomycin. All cell lines were grown at 37° C. with 5% CO2.
MDCK co-expressing GFP—K-RASG12V or LactC2 and mCherry-CAAX were grown on coverslips, treated with 0.1% vehicle (DMSO) or various concentrations of drugs for 48 h, and fixed with 4% paraformaldehyde. The coverslips were mounted in mowiol and imaged by confocal microscopy (Nikon A1) using a 60× objective. Using ImageJ software v1.42q, images were converted to 8-bit, and a threshold to a control pixel of each image was set. As a measure of K-Ras/LactC2 mislocalization, the fraction of mCherry-CAAX co-localizing with mGFP-K-RASG12V was calculated using a Manders coefficient plugin downloaded from Wright Cell Image Facility. The fraction of mCherry-CAAX co-localizing with mGFP-RASG12V (Mander's coefficient) is proportional to K-Ras mislocalization.

[1] = test system: MDCK cells co-expressing GFP-K-RASG12V and mCherry-CAAX; assay: Cytotoxicity in mislocalization screen (death of all cells in well); settings: drug caused death of all cells in well at 30 μM

| SMILES | IC50 (mGFP-K-RASG12V) | Emax (mGFP-K-RASG12V) | Cytotoxic at 30 μM [1] | also measured |
| --- | --- | --- | --- | --- |
| CCN(CC)CCN(CC=C(c1ccccc1)c1ccccc1)[C@H](C)c1ccc(OC)cc1 [NY0358, (R)-N^1-(3,3-diphenylallyl)-N^2,N^2-diethyl-N^1-(1-(4-methoxyphenyl)ethyl)ethane-1,2-diamine] | 1.15 µM and 1.2 µM | 0.887 | Yes | Emax (mGFP-K-RASG12V; listed as 12b): 0.89 ± 0.01 |
| COc1ccc([C@@H](C)N(CC=C(c2ccccc2)c2ccccc2)CCN2CCCCC2)cc1 [NY329, (R)-N-(1-(4-methoxyphenyl)ethyl)-3,3-diphenyl-N-(2-(piperidin-1-yl)ethyl)prop-2-en-1-amine] | 0.6 µM | 0.83 ± 0.02 | Yes |  |
| COc1ccc([C@@H](C)N(CC=C(c2ccccc2)c2ccccc2)CCN2CCN(C(=O)Nc3ccccc3)CC2)cc1 [NY352, (R)-4-(2-((3,3-diphenylallyl)(1-(4-methoxyphenyl)ethyl)amino)ethyl)-N-phenylpiperazine-1-carboxamide] | 1.68 µM | 0.920 | Yes |  |
| C[C@H](c1ccc(F)cc1)N(C/C=C(/c1ccccc1)c1ccc(OC(F)(F)F)cc1)CCN1CCCC1 [PW361, (R,Z)-N-(1-(4-fluorophenyl)ethyl)-3-phenyl-N-(2-(pyrrolidin-1-yl)ethyl)-3-(4-(trifluoromethoxy)phenyl)prop-2-en-1-amine] | 0.725 µM | 0.606 | Yes at 3 uM |  |
| C[C@@H](NCCN1c2ccccc2Sc2ccccc21)c1ccc(F)cc1 [NY0575, (R)-N-(2-(10H-phenothiazin-10-yl)ethyl)-1-(4-fluorophenyl)ethan-1-amine] |  | 0.484 | No | EC50 (mGFP-K-RASG12V): 4300 nM |
| COc1ccc(/C(=C\CN(CCN2CCCC2)[C@H](C)c2ccc(F)cc2)c2ccccc2)cc1 [PW460, (R,Z)-N-(1-(4-fluorophenyl)ethyl)-3-(4-methoxyphenyl)-3-phenyl-N-(2-(pyrrolidin-1-yl)ethyl)prop-2-en-1-amine] | 2.02 µM | 0.801 | Yes at 10 uM |  |
| COc1ccc([C@@H](C)N(CC=C(c2ccccc2)c2ccccc2)CCN2CCC2)cc1 [NY0593, (R)-N-(2-(azetidin-1-yl)ethyl)-N-(1-(4-methoxyphenyl)ethyl)-3,3-diphenylprop-2-en-1-amine] | 0.5 µM | 0.694 | Yes | EC50 (mGFP-K-RASG12V): 492 nM; Emax (mGFP-K-RASG12V; listed as 12i): 0.69 ± 0.02; fold potency loss / decreased potency (mGFP-K-RASG12V; versus 12f (NY0244)): 5 fold |
| COc1ccc([C@@H](C)N(CC=C(c2ccccc2)c2ccccc2)CCCO)cc1 [NY0479, (R)-3-((3,3-diphenylallyl)(1-(4-methoxyphenyl)ethyl)amino)propan-1-ol] |  | 0.871 | No | EC50 (mGFP-K-RASG12V): 1590 nM |
| COc1ccc([C@@H](C)N(CC=C(c2ccccc2)c2ccccc2)CCN2CCN(C(C)=O)CC2)cc1 [NY350, (R)-1-(4-(2-((3,3-diphenylallyl)(1-(4-methoxyphenyl)ethyl)amino)ethyl)piperazin-1-yl)ethanone] |  | 0.877 | No |  |
| COc1ccc([C@@H](C)N(CC=C(c2ccccc2)c2ccccc2)CCN2CCN(C(=O)NC(C)(C)C)CC2)cc1 [NY0587, (R)-N-(tert-butyl)-4-(2-((3,3-diphenylallyl)(1-(4-methoxyphenyl)ethyl)amino)ethyl) piperazine-1-carboxamide] |  | 0.827 | No | EC50 (mGFP-K-RASG12V): 1830 nM |
| C=CCN(CCN1CCN(C)CC1)[C@H](C)c1ccc(OC)cc1 [NY349, (R)-N-(1-(4-methoxyphenyl)ethyl)-N-(2-(4-methylpiperazin-1-yl)ethyl)prop-2-en-1-amine] | 59.3 µM | 0.76 ± 0.02 | No | KRAS PM localization inhibition activity (in words) (mGFP-K-RASG12V): complete loss of in vitro activity |
| O=C(O)[C@H](NCC=C(c1ccccc1)c1ccccc1)c1ccccc1 [NY0555, (R)-2-((3,3-diphenylallyl)amino)-2-phenylacetic acid] |  | 0.332 | No | EC50 (mGFP-K-RASG12V): 4370 nM |
| C[C@H](c1ccc(Cl)cc1)N(CC=C(c1ccccc1)c1ccccc1)CCN1CCCC1 [NY0519, (R)-N-(1-(4-chlorophenyl)ethyl)-3,3-diphenyl-N-(2-(pyrrolidin-1-yl)ethyl)prop-2-en-1-amine] |  | 0.553 | Yes | EC50 (mGFP-K-RASG12V): 4360 nM |
| CC(=O)NNC(=O)[C@H](NCC=C(c1ccccc1)c1ccccc1)c1ccccc1 [NY0568, (R)-N′-acetyl-2-((3,3-diphenylallyl)amino)-2-phenylacetohydrazide] |  | 0.364 | No |  |
| C=CC(=O)N(CC=C(c1ccccc1)c1ccccc1)[C@H](C)c1ccc(OC)cc1 [NY0235, (R)-N-(3,3-diphenylallyl)-N-(1-(4-methoxyphenyl)ethyl)acrylamide] | 1.21 µM | 0.59 | No |  |
| COc1ccc([C@@H](C)N(CC=C(c2ccccc2)c2ccccc2)CCN(C)C)cc1 [NY0435, (R)-N^1-(3,3-diphenylallyl)-N^1-(1-(4-methoxyphenyl)ethyl)-N^2,N^2-dimethylethane-1,2-diamine] | 11.2 µM | 0.658 | Yes | IC50 (mGFP-K-RASG12V; listed as 12a): 11.2 µM; Emax (mGFP-K-RASG12V; listed as 12a): 0.66 ± 0.01 |

Further lines, with some results ahead:

| IC50 (mGFP-K-RASG12V) | Emax (mGFP-K-RASG12V) | SMILES | Cytotoxic at 30 μM [1] | also measured |
| --- | --- | --- | --- | --- |
| 4.13 µM | 0.675 | C[C@H](c1ccc(F)cc1)N(CC=C(c1ccccc1)c1ccccc1)CCn1cc(CCO)nn1 [PW303, (R)-2-(1-(2-((3,3-diphenylallyl)(1-(4-fluorophenyl)ethyl)amino)ethyl)-1H-1,2,3-triazol-4-yl)ethan-1-ol] | Yes |  |
| 2.9 µM | 0.767 | C[C@H](c1ccc(F)cc1)N(CCN1CCCC1)C(=O)c1cc(-c2ccccc2)ccn1 [PW324, (R)-N-(1-(4-Fluorophenyl)ethyl)-4-phenyl-N-(2-(pyrrolidin-1-yl)ethyl)picolinamide] | No |  |
| 6.63 µM | 0.801 | O=C(c1cc2ccccn2n1)N(CC=C(c1ccccc1)c1ccccc1)CCN1CCCC1 [PW286, N-(3,3-diphenylallyl)-N-(2-(pyrrolidin-1-yl)ethyl)pyrazolo[1,5-a]pyridine-2-carboxamide] | No |  |
| 4.52 µM | 0.62 | O=C(c1cnc2ccccc2n1)N(CC=C(c1ccccc1)c1ccccc1)CCN1CCCC1 [PW285, N-(3,3-diphenylallyl)-N-(2-(pyrrolidin-1-yl)ethyl)quinoxaline-2-carboxamide] | Yes |  |
|  | 0.662 | C[C@H](c1ccc(F)cc1)N(CCN1CCCC1)C(=O)c1ccc(C(F)(F)F)cc1 [PW322, (R)-N-(1-(4-Fluorophenyl)ethyl)-N-(2-(pyrrolidin-1-yl)ethyl)-4-(trifluoromethyl)benzamide] | No |  |
|  | 0.549 | O=C(/C=C/c1ccccc1)N(CC=C(c1ccccc1)c1ccccc1)CCN1CCCC1 [PW284, N-(3,3-diphenylallyl)-N-(2-(pyrrolidin-1-yl)ethyl)cinnamamide] | Yes |  |
| 3.32 µM | 0.721 | C[C@H](c1ccc(F)cc1)N(CC=C(c1ccccc1)c1ccccc1)CCn1cc(-c2ccc(F)cc2)nn1 [PW308, (R)-N-(2-(4-(4-fluorophenyl)-1H-1,2,3-triazol-1-yl)ethyl)-N-(1-(4-fluorophenyl)ethyl)-3,3-diphenylprop-2-en-1-amine] | No |  |
| 7.8 µM | 0.808 | Cc1ccc(C(=CCN(CCN2CCCC2)[C@H](C)c2ccc(F)cc2)c2ccc(C)cc2)cc1 [PW327, (R)-N-(1-(4-Fluorophenyl)ethyl)-N-(2-(pyrrolidin-1-yl)ethyl)-3,3-di-p-tolylprop-2-en-1-amine] | Yes |  |
|  | 0.324 | O=C(c1cc(-c2ccc(Cl)cc2)on1)N(CC=C(c1ccccc1)c1ccccc1)CCN1CCCC1 [PW283, 5-(4-chlorophenyl)-N-(3,3-diphenylallyl)-N-(2-(pyrrolidin-1-yl)ethyl)isoxazole-3-carboxamide] | Yes |  |
